We go through 7 compounds from patent publication US20190201377A1, “METHODS AND COMPOSITIONS FOR TREATMENT OF LIPID STORAGE DISORDERS” (Neurotrope BioScience, Inc., priority 2014, published 2019).

In experiment [1] the test system is NPC3-SV cells. The class given is cell-based, Human.
The test system of experiment [2] is NPC3-SV cells. Nature of the experiment: Stored cholesterol by filipin staining in NPC3-SV cells. The class given is cell-based, Human. To be noted: for clearance of cholesterol from NPC1 cells: 48 h, FIG. 8, different drug concentrations; for stored cholesterol levels: 72 h, FIG. 9. As for the experimental part: (§1) Cells are plated in 6-well dishes and treated with the appropriate compound (dissolved in DMSO) at the indicated dose daily for 48 hrs. Control cells receive DMSO. After 48 hrs cells are transferred to cover slips with fresh compound and grown for another 24 hrs. Cover slips are collected and processed for microscopy.
(§2) For detection of unesterified cholesterol in lysosomes, cells were fixed in formalin for 30 min at 4° C., washed 2×, 5 min in 0.9% NaCl, incubated for 45 min with 0.01% filipin in PBS at room temperature, and then washed 2×, 5 min. Fluorescence was observed using a Nikon Eclipse fluorescence microscope (Nikon, Melville, N.Y.) equipped with a CCD camera. Fluorescence signals were quantified using Nikon's imaging and quantitation software package NIS Elements, v.3.22.

A further experiment concerns NPC3SV cells. The class given is cell-based, Human.
For experiment [3], the system named is human NPC24-SV cells. As to the kind of experiment: Cholesterol accumulation by filipin staining in NPC24-SV cells. The class given is cell-based. To be noted: for effect in cholesterol assay: NPC24-SV cells, FIG. 13. As for the experimental part:
as §1, §2

Experiment [4] concerns human NPC1 3123 cells. Nature of the experiment: Sphingolipid transport by BODIPY-LacCer staining. The class given is cell-based. To be noted: 48 hours. From the text:
(§3) For filipin staining in transfected cells, cells were transfected with PKC or Rab9 using Fugene 6 according to the manufacturer's recommendations. After 48 hrs, cells were stained with filipin as we have previously described [3 7]. Cells were mounted onto slides using Fluoromount-G (Southern Biotech, Birmingham, Ala.) and analyzed on a Nikon Eclipse microscope fitted with a charge-coupled-device camera (Nikon, Melville, N.Y.). Images were acquired with MetaVue software and then deconvoluted using AutoDeblur software from AutoQuant Imaging, Inc (Troy, N.Y.). For quantitation of filipin fluorescence, cells were seeded at 3×10^5 cells/well in 6-well dishes and allowed to settle overnight, after which the medium was replaced with medium containing 10% lipoprotein deficient serum (LPDS) for 4 days. Cells were incubated with oleic/linoleic acids for 48 hours, DCPLA/DHA for 24 hrs, or diazoxide for 72 hrs before fixing and staining with filipin as we have previously described. Images were acquired using the same exposure time for all samples. Fluorescence intensity was determined using the integrated intensity function of MetaVue software; at least 150 cells were quantitated for each sample and each experiment was repeated 3 times. For analysis of sphingolipid transport, cells were incubated with oleic/linoleic acids, DCP-LA, or PMA for 48 hours before BODIPY-LacCer staining was performed as previously described.
To further confirm the positive effects of DCP-LA and fatty acids on the NPC1 phenotype, human NPC1 cells were treated with DCP-LA, fatty acids, or PMA to activate PKCs. […] Following absorption to the plasma membrane, the LacCer sphingolipid enters normal cells via endocytosis and eventually reaches the trans-Golgi network (TGN; [30]). […] Human NPC1 cells treated as indicated in FIG. 7 show a dramatic improvement in lipid transport with the BODIPY-LacCer effectively reaching the TGN (FIG. 7; arrows) compared to untreated cells that show only punctate, endosomal fluorescence (FIG. 7A).

For experiment [5], the system named is M12 NPC1 CHO cells. As to the kind of experiment: Cholesterol storage by filipin staining in NPC1 CHO (M12) cells. To be noted: for filipin fluorescence, % of levels in untreated cells: oleic/linoleic acids for 48 hours, M12 CHO cells. The class given is cell-based, Chinese hamster. The method, then: as §3, with “The human wild-type fibroblast (GM05387), NPC1o fibroblast (GM09341), and NPC1 fibroblast (GM03123) cell lines were obtained from Coriell Cell Repositories (Camden, N.J.). The M12 Chinese hamster ovary (CHO) cell line and its wild-type parental line were obtained and cultured. Fibroblast cell lines were cultured in DMEM, and CHO cells were cultured in DMEM/F12 (50:50) medium, supplemented with 10% FBS, 2 mM L-glutamine, and 50 μg/ml gentamicin in a humidified incubator at 37° C. with 5% CO2. For filipin” for “For filipin”, “48 hours, […] for 24” for “48 hours, DCPLA/DHA for 24”

Experiment [6] relates to human NPC1 3123 cells. Nature of the experiment: Cholesterol storage by filipin staining in human NPC1 3123 fibroblasts. The class given is cell-based. To be noted: oleic/linoleic acids for 48 hours. The method, then:
The human wild-type fibroblast (GM05387), NPC1o fibroblast (GM09341), and NPC1 fibroblast (GM03123) cell lines were obtained from Coriell Cell Repositories (Camden, N.J.). The M12 Chinese hamster ovary (CHO) cell line and its wild-type parental line were obtained and cultured. Fibroblast cell lines were cultured in DMEM, and CHO cells were cultured in DMEM/F12 (50:50) medium, supplemented with 10% FBS, 2 mM L-glutamine, and 50 μg/ml gentamicin in a humidified incubator at 37° C. with 5% CO2. For filipin staining in transfected cells, cells were transfected with PKC or Rab9 using Fugene 6 according to the manufacturer's recommendations. After 48 hrs, cells were stained with filipin as we have previously described [3 7]. Cells were mounted onto slides using Fluoromount-G (Southern Biotech, Birmingham, Ala.) and analyzed on a Nikon Eclipse microscope fitted with a charge-coupled-device camera (Nikon, Melville, N.Y.). […] For quantitation of filipin fluorescence, cells were seeded at 3×10^5 cells/well in 6-well dishes and allowed to settle overnight, after which the medium was replaced with medium containing 10% lipoprotein deficient serum (LPDS) for 4 days. […] Fluorescence intensity was determined using the integrated intensity function of MetaVue software; at least 150 cells were quantitated for each sample and each experiment was repeated 3 times. […]

Experiment [7] relates to M12 NPC1 CHO cells. As to the kind of experiment: Cholesterol esterification assay in M12 NPC1 CHO cells. The class given is cell-based, Chinese hamster. To be noted: for esterification levels over untreated cells: 50 μg/ml fatty acid for 2 days followed by expression of PKC ε. As for the experimental part:
The preparation of [3H] oleate substrate and esterification assays were performed as previously described. Cells were treated with 50 μg/ml fatty acid for 2 days and then transfected with […] or PKCε for 24 hrs before esterification assays. All values were generated in triplicate and normalized for total cell protein.

In another experiment the test system is NPC cells. To be noted: PMA treatment of NPC cells, earlier study [5]; cited from earlier work.
The next experiment has as its system C57 NPC1 mice. Nature of the experiment: Treatment of C57 NPC1 mice, life span. The class given is in vivo, mouse. As for the experimental part: A total of […] C57B16 NPC1 mice, mixed sex, were used. These mice were separated into […], Groups 1-5.
Bryostatin 1 (purity ≥:95%) from Aphios (Woburn, Mass.), 1 vial 2 mg, was solubilized in a 5% DMSO, 20% Solutol and 75% Saline solution and used as the study drug. The negative (vehicle) control is a 5% DMSO, 20% Solutol and 75% Saline solution. DCP-LA from Sigma-Aldrich: 5 mg oil/vial was used as an additional in vitro active compound. Bryostatin 1 (API) was stored at or below −20° C. and formulated as needed. The formulated bryostatin 1 was stored at 2° to 8° C. for less than 24 hour(s). The DCP-LA and the vehicle controls were stored at 2°-8° C.
The stock solution of bryostatin 1 is 1 Omg/ml in DMSO, which is kept at −80° C. in aliquots. The dosing formulation is made by diluting the stock first in DMSO, then adding solutol, and lastly saline-with more insoluble compounds, adding the drug stock to complete vehicle will cause the compound to come out of solution, so we make formulations stepwise. The dosing volume is always 100 μl. Mice weigh approximately 20 g.
The mice are dosed twice weekly (Mon and Thu) starting at 30 days for up to 150 days.
C57 NPC1 mice have an average life span of ˜110 days. By Day 70 mice reach an average weight of 18-22 grams. Untreated NPC1 mice develop ataxia and will begin to lose weight at ˜70 days (see FIG. 17). Ataxia (or lack of voluntary muscle control) is a clinical feature of NPC1 mice, which may be described as shaking. Treatment will be initiated at ˜30 days of age, average NPC mouse weight of 10 g. If the drug is efficacious injections will continue past day 70-80. An extension of life of about 20-30% will mean that animals will need to be treated up to day 130-150.

Experiment [8] has as its system human NPC24-SV cells. As to the kind of experiment: Glycosphingolipid accumulation by VTB staining in NPC24-SV cells. The class given is cell-based.

With `CCCCCC1CC1CC1CC1CCCCCCCC(=O)O` (stereo not shown) [DCP-LA, 8-[2-(2-pentylcyclopropylmethyl)-cyclopropyl]-octanoic acid], the “stored glycosphingolipid levels (VTB)” value in the experiment on NPC3-SV cells [1] is listed as “decrease stored glycosphingolipid levels”. Besides, in the experiment with NPC3-SV cells [2], the “clearance of cholesterol from NPC1 cells” value is listed as “able to induce clearance of cholesterol” and the stored cholesterol levels entry was “decrease stored cholesterol levels”. Also, in the experiment with NPC3SV cells (DCPLA, concentration not given, NPC3SV cells, FIG. 12), the “ganglioside transport block (CTB)” value is “release the ganglioside transport block”. For the same compound, in the experiment with human NPC24-SV cells [3] (DCPLA, concentration not given, NPC24-SV cell line, FIG. 11), the filipin accumulation result is “decrease filipin accumulation”. Also, the “BODIPY-LacCer transport to the trans-Golgi network” value (“BODIPY-LacCer transport” below) in the experiment with human NPC1 3123 cells [4] (20 μM DCP-LA) is listed as “the lipid can be seen in the TGN”. Also, in the experiment on M12 NPC1 CHO cells [5] (100 μM DCP-LA, 24 hrs (overnight)), the “reduction of cholesterol storage (filipin intensity)” value (“reduction of cholesterol storage” for short) is around 50%.
`CCCCCCCC/C=C\CCCCCCCC(=O)O` [oleic acid, cis-9-octadecenoic acid]: the “filipin fluorescence, % of levels in untreated cells” value in the experiment on human NPC1 3123 cells [6] and in the experiment on M12 NPC1 CHO cells [5] was around 75% throughout. Also, the “esterification levels over untreated cells” value in the experiment on M12 NPC1 CHO cells [7] is on record as around 3.5 fold. The “BODIPY-LacCer transport” value with human NPC1 3123 cells [4] (2 μg/ml oleic acid) is reported as “the lipid can be seen in the TGN”.
`CC/C=C\C/C=C\C/C=C\C/C=C\C/C=C\C/C=C\CCC(=O)O` [DHA, docosahexanoic acid]: the “reduction of cholesterol storage” value in the experiment with M12 NPC1 CHO cells [5] (10 μM DHA, 24 hrs (overnight)) is listed as around 50%.
With `CC1=NS(=O)(=O)c2cc(Cl)ccc2N1` [diazoxide], the “clearance of cholesterol from NPC1 cells” value in the experiment with NPC3-SV cells [2] was “able to induce clearance of cholesterol”. The “reduction of cholesterol storage” value in the experiment on M12 NPC1 CHO cells [5] (100 μM diazoxide, 72 hrs) was around 50%.
With `CCCCC/C=C\C/C=C\CCCCCCCC(=O)O` [linoleic acid], the “filipin fluorescence, % of levels in untreated cells” value in the experiment on human NPC1 3123 cells [6] and in the experiment on M12 NPC1 CHO cells [5] was around 75% each time. Further, the “increase of cholesterol esterification compared to untreated M12 cells” value with M12 NPC1 CHO cells [7] (50 μg/ml fatty acid for 2 days) was “greater than 2 fold”. Also, the “esterification levels over untreated cells” value in the experiment on M12 NPC1 CHO cells [7] is around 3.5 fold. Also, in the experiment with human NPC1 3123 cells [4] (2 μg/ml linoleic acid), the “BODIPY-LacCer transport” value is “the lipid can be seen in the TGN”.
Regarding `CCCCCCCCCCCCCC(=O)O[C@@H]1[C@@H](C)[C@@]2(O)[C@@H](C=C(CO)C[C@]3(O)C(=O)C(C)=C[C@@H]23)[C@@H]2C(C)(C)[C@]12OC(C)=O` [PMA, phorbol-12-myristate-13-acetate], the “NPC lipid storage phenotype” value in the experiment with NPC cells was “ameliorated the NPC lipid storage phenotype”. Further, in the experiment with human NPC1 3123 cells [4] (100 nM PMA), the “BODIPY-LacCer transport” value was “the lipid can be seen in the TGN”.
In the case of `CCC/C=C/C=C/C(=O)O[C@H]1/C(=C/C(=O)OC)C[C@H]2C[C@H]([C@@H](C)O)OC(=O)C[C@H](O)C[C@@H]3C[C@H](OC(C)=O)C(C)(C)[C@](O)(C[C@@H]4C/C(=C/C(=O)OC)C[C@H](/C=C/C(C)(C)[C@]1(O)O2)O4)O3` [bryostatin 1], the “glycosphingolipid accumulation (VTB)” value with NPC3-SV cells [1] is “statistically significant effectiveness in decreasing the glycosphingolipid accumulation”. Also, the “age that mice lived past” value in the experiment on C57 NPC1 mice (10 μg/kg IP twice weekly starting at 30 days), in the experiment with C57 NPC1 mice (20 μg/kg IP twice weekly starting at 30 days) and in the experiment with C57 NPC1 mice (30 μg/kg IP twice weekly starting at 30 days) was above 100 days each time. Moreover, the “clearance of cholesterol from NPC1 cells” value with NPC3-SV cells [2] is reported as “able to induce clearance of cholesterol”. Further, in the experiment on NPC3-SV cells [2], the stored cholesterol levels entry is “most active compound showing activity in the nanomolar concentration range”. The “clearance of endosome-trapped cholera toxin (CTB)” value with NPC3SV cells is “able to clear the endosome-trapped cholera toxin (CTB)”. The “effect in sphingolipid assay” value was “no effect” in the experiment with human NPC24-SV cells [8] (0.1 nM, FIG. 14) and “statistically significant” in the experiment with human NPC24-SV cells [8] (1 nM, FIG. 14, increases with increasing concentration). For the same compound, the “effect in cholesterol assay” value was “no effect” in the experiment on human NPC24-SV cells [3] (0.1 nM) and “statistically significant” in the experiment with human NPC24-SV cells [3] (1 nM, increases with increasing concentration). For the same compound, the cholesterol clearance result with human NPC24-SV cells [3] (10 nM bryostatin 1, NPC24-SV cell line, FIG. 11) is listed as “able to effect cholesterol 2 clearance”. Besides, the “concentration showing a positive therapeutic effect for human NPC1 disease cells” value in the experiment on human NPC24-SV cells [3] (summary of the cholesterol and glycosphingolipid assays of Example 2) is 10 to 100 nM.
